The record followed here is PMC10099721, “Substrate Induced Movement of the Metal Cofactor between Active and Resting State” (Angewandte Chemie (International Ed. in English), 2022).

Assay type in all cases: binding
The target in experiment [1] is T1, SwHKA (hydroxyketoacid aldolase from Sphingomonas wittichii RW1) (Rhizorhabdus wittichii, UniProt A0A9J9HGY6).
T1 construct: gene Swit_5035; N-terminal His6-tag, E. coli BL21(DE3), 251 residues per monomer, homohexamer (trimer of domain-swapped dimers), divalent metal dependent
Kind of experiment: X-ray crystal structure. The following applies: with hydroxypyruvate in the active site; H-bonds to R69 and R120'.

Experiment [2] has as its target T2, SwHKA (hydroxyketoacid aldolase from Sphingomonas wittichii RW1) (Rhizorhabdus wittichii, UniProt A0A9J9HGY6, F210W).
T2 construct: gene Swit_5035; N-terminal His6-tag, E. coli BL21(DE3), 251 residues per monomer, homohexamer (trimer of domain-swapped dimers), divalent metal dependent
Nature of the experiment: X-ray crystal structure, […] A, soaked crystal. The following applies: MgCl2 soak; bound in monomer B only; PDB id printed as 7OBU in the text but 7O87 (as F201W-HPA) in the Figure 2 legend.

Experiment [3] concerns the target T3, SwHKA (hydroxyketoacid aldolase from Sphingomonas wittichii RW1) (Rhizorhabdus wittichii, UniProt A0A9J9HGY6, S116C).
T3 construct: gene Swit_5035; N-terminal His6-tag, E. coli BL21(DE3), 251 residues per monomer, homohexamer (trimer of domain-swapped dimers), divalent metal dependent
Kind of experiment: nanoDSF melting temperature. Conditions: absolute Tm, not a shift; MgCl2 10 mM, hydroxypyruvate 20 mM, Hepes 20 mM pH 7.5. For orientation: DSF heats the sample and reads unfolding from a dye or from intrinsic fluorescence.

Experiment [4] addresses T4, SwHKA (hydroxyketoacid aldolase from Sphingomonas wittichii RW1) (Rhizorhabdus wittichii, UniProt A0A9J9HGY6, S116A).
T4 construct: gene Swit_5035; N-terminal His6-tag, E. coli BL21(DE3), 251 residues per monomer, homohexamer (trimer of domain-swapped dimers), divalent metal dependent
Kind of experiment: X-ray crystal structure. Conditions: bound to the active-state metal, distorted geometry.

T2 sequence (A0A9J9HGY6 whole entry F210W, the tested form may be a part): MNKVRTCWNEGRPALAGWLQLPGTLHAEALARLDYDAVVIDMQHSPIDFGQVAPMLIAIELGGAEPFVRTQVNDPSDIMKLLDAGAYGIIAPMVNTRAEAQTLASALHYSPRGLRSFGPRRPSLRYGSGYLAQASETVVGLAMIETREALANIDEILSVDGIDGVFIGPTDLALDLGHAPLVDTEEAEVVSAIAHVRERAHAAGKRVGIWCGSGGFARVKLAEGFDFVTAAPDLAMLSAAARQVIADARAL
T4 sequence (A0A9J9HGY6 whole entry S116A, the tested form may be a part): as the sequence (A0A9J9HGY6 whole entry F210W, the tested form may be a part) above, with S116A, W210F counted along it
T3 sequence (A0A9J9HGY6 whole entry S116C, the tested form may be a part): as the sequence (A0A9J9HGY6 whole entry F210W, the tested form may be a part) above, with S116C, W210F counted along it
T1 sequence (A0A9J9HGY6 whole entry, the tested form may be a part): as the sequence (A0A9J9HGY6 whole entry F210W, the tested form may be a part) above, with W210F counted along it

On to `O=C[C@H](O)CO` [D-glyceraldehyde], for which the X-ray crystal structure entry in experiment [1] is on record as “Close‐up view of the active site of SwHKA with DGA bound (PDBID 8ADQ)”.

The Tm is the temperature at the midpoint of the melting transition. Consider `O=C(O)C(=O)CO` [hydroxypyruvate], for which, in experiment [2], the “X-ray crystal structure, 1.2 A, soaked crystal” value was “crystal structure of variant F210W soaked with MgCl2 and hydroxypyruvate could now be solved”. Also, the Tm in experiment [3] came to 73 °C. Moreover, the X-ray crystal structure entry in experiment [4] was “showed a strangely distorted geometry (Figure S13, S116A‐HPA PDBID 7NNK)”.
